Assay results published in ChEMBL document CHEMBL1268980, “2-Aryl benzimidazoles: human SCD1-specific stearoyl coenzyme-A desaturase inhibitors” (Bioorg Med Chem Lett, 2010).
pIC50: −log10 of the molar value.

Legend:
Acyl-CoA desaturase 1 = biological target: T1, Acyl-CoA desaturase 1 (Rattus norvegicus, UniProt P07308); test: Inhibition of rat SCD1
T1 sequence (P07308 whole entry): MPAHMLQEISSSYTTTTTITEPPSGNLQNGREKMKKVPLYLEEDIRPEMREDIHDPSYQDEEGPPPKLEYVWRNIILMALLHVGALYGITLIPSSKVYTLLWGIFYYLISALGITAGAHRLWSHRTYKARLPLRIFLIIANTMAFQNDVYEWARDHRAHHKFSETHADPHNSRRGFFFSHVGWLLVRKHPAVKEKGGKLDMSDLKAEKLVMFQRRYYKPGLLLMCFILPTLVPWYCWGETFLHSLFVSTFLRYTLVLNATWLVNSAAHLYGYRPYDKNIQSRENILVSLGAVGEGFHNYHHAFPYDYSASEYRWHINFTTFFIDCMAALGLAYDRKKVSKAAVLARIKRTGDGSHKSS

[1] = biological target: T2, Stearoyl-CoA desaturase 5 (Homo sapiens, UniProt Q86SK9); test: Inhibition of human SCD5
T2 sequence (Q86SK9 whole entry): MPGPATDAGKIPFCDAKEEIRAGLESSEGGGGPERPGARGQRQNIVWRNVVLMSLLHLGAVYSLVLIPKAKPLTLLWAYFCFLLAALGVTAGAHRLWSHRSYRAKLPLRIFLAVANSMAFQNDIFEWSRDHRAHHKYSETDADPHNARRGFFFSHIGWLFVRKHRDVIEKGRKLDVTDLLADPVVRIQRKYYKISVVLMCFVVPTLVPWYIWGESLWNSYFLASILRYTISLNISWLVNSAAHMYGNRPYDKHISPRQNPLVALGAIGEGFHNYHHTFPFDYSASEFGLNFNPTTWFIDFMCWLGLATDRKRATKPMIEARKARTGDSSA

Stearoyl-CoA desaturase = biological target: T3, Stearoyl-CoA desaturase (Homo sapiens, UniProt O00767); test: Inhibition of human SCD1
T3 sequence (O00767 whole entry): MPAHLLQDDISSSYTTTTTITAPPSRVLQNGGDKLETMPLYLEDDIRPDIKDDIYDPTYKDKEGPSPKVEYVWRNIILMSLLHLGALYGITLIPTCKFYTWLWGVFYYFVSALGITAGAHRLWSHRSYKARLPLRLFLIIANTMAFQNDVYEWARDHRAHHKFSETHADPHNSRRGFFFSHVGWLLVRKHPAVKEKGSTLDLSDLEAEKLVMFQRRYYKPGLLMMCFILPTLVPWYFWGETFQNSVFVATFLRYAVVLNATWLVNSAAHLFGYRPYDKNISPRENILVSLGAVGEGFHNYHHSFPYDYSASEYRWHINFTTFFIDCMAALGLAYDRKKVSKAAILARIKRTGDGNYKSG

[2] = Oral bioavailability in Beagle dog at 2 mg/kg, po; format: ADME, organism-based, Canis lupus familiaris; conditions: in vivo
[3] = Drug level in high sucrose/fat free diet fed C57BL/6 mouse liver at 100 mg/kg, po after 3 hrs post dose; format: ADME, organism-based, C57BL6; parameters: dose 100 mg/kg, route oral; conditions: read-out: Drug uptake
[4] = Drug level in high sucrose/fat free diet fed C57BL/6 mouse plasma at 30 mg/kg, po after 3 hrs post dose; format: ADME, organism-based, C57BL6; parameters: dose 30 mg/kg, route oral
[5] = Volume of distribution at steady state in C57BL/6 mouse at 10 mg/kg, po or 2 mg/kg, iv; format: ADME, organism-based, C57BL6; conditions: in vivo, read-out: Vdss
[6] = Half life in Beagle dog at 2 mg/kg, po or 0.5 mg/kg, iv; format: ADME, organism-based, Canis lupus familiaris; conditions: in vivo
[7] = Oral bioavailability in C57BL/6 mouse at 10 mg/kg, po; format: ADME, organism-based, C57BL6; conditions: in vivo
[8] = biological target: Acyl-CoA (8-3)-desaturase (Homo sapiens, UniProt O60427); test: Inhibition of Delta(5) fatty acid desaturase in human HepG2 cells; format: cell-based
Chain of Acyl-CoA (8-3)-desaturase (Homo sapiens, UniProt O60427) (O60427 whole entry): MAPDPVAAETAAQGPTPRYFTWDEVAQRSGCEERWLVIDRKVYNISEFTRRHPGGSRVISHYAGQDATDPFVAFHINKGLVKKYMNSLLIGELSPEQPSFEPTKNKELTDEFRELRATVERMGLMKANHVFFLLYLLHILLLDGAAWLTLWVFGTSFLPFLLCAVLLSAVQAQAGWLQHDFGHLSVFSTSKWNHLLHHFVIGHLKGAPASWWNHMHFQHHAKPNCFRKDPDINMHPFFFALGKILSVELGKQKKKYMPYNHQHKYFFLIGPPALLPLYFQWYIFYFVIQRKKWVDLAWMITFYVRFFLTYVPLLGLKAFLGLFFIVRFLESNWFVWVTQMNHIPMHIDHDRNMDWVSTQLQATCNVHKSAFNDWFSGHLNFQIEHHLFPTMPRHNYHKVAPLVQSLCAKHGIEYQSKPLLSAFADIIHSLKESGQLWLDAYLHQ

[9] = Drug level in high sucrose/fat free diet fed C57BL/6 mouse plasma at 100 mg/kg, po after 3 hrs post dose; format: ADME, organism-based, C57BL6; parameters: dose 100 mg/kg, route oral
Mus musculus [10] = test: Inhibition of SCD activity in high sucrose/fat free diet fed C57BL/6 mouse assessed as reduction in conversion of [14C]stearic acid to [14C]oleic acid at 30 mg/kg, po; format: functional; conditions: C57BL6
[11] = Volume of distribution at steady state in Beagle dog at 2 mg/kg, po or 0.5 mg/kg, iv; format: ADME, organism-based, Canis lupus familiaris; conditions: in vivo, read-out: Vdss
[12] = Terminal half life in C57BL/6 mouse at 10 mg/kg, po or 2 mg/kg, iv; format: ADME, organism-based, C57BL6; conditions: in vivo, read-out: beta t1/2 (converted)
[13] = Plasma clearance in C57BL/6 mouse at 10 mg/kg, po or 2 mg/kg, iv; format: ADME, organism-based, C57BL6
Mus musculus [14] = test: Inhibition of SCD activity in high sucrose/fat free diet fed C57BL/6 mouse assessed as reduction in conversion of [14C]stearic acid to [14C]oleic acid at 100 mg/kg, po; format: functional; conditions: C57BL6
Mus musculus [15] = test: Inhibition of SCD activity in po dosed high sucrose/fat free diet fed C57BL/6 mouse assessed as reduction in conversion of [14C]stearic acid to [14C]oleic acid; format: functional, organism-based; conditions: C57BL6
[16] = AUC in C57BL/6 mouse plasma at 10 mg/kg, po or 2 mg/kg, iv; format: ADME, organism-based, C57BL6
[17] = biological target: T4, Acyl-CoA (8-3)-desaturase (Rattus norvegicus, UniProt Q920R3); test: Inhibition of Delta(5) fatty acid desaturase in freshly isolated rat hepatocytes; format: cell-based, Hepatocyte
T4 sequence (Q920R3 whole entry): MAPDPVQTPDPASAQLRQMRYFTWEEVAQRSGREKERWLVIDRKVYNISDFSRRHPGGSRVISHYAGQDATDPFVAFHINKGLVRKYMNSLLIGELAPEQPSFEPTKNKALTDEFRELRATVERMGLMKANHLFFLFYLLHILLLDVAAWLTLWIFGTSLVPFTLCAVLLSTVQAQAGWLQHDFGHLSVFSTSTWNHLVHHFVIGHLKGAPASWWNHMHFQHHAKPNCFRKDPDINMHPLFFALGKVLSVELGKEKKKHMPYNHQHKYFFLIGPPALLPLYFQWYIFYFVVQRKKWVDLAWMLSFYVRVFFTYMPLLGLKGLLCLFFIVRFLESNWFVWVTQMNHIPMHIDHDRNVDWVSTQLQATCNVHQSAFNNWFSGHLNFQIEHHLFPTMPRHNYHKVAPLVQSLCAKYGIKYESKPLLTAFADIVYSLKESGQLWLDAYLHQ

[18] = Drug level in high sucrose/fat free diet fed C57BL/6 mouse liver at 30 mg/kg, po after 3 hrs post dose; format: ADME, organism-based, C57BL6; parameters: dose 30 mg/kg, route oral; conditions: read-out: Drug uptake
[19] = Plasma clearance in Beagle dog at 2 mg/kg, po or 0.5 mg/kg, iv; format: ADME, organism-based, Canis lupus familiaris
[20] = AUC in Beagle dog plasma at 2 mg/kg, po or 0.5 mg/kg, iv; format: ADME, organism-based, Canis lupus familiaris
[21] = biological target: T4, Acyl-CoA (8-3)-desaturase; test: Inhibition of rat Delta(5) fatty acid desaturase by cell based assay

Structure (SMILES) | pIC50 (Acyl-CoA desaturase 1) | pIC50 [1] | pIC50 (Stearoyl-CoA desaturase) | other results
CS(=O)(=O)c1ccc2nc(-c3ccc(-c4ccc(Cl)cc4)cc3)[nH]c2c1 | < 4.70 |  |  | 
CSc1ccc2nc(-c3ccc(-c4ccccc4F)cc3)[nH]c2c1 | 6.16 |  |  | 
CS(=O)(=O)c1ccc2nc(-c3ccc(-c4cccnc4)cc3)[nH]c2c1 | 6.37 |  |  | 
CS(=O)(=O)c1ccc2nc(-c3ccc(-c4ccccc4F)nc3)[nH]c2c1 | 7.24 | < 4.70 | 7.72 | 
O=S(=O)(c1ccc2nc(-c3ccc(-c4ccccc4F)cc3)[nH]c2c1)C1CC1 | 6.40 |  |  | 
CCS(=O)(=O)c1ccc2nc(-c3ccc(-c4ccccc4F)cc3)[nH]c2c1 | 5.90 | < 4.70 | 5.88 | 
CS(=O)(=O)c1ccc2nc(-c3ccc(-c4ccccc4)cc3)[nH]c2c1 | 7.70 | < 5.00 | 7.62 | 
CS(=O)(=O)c1ccc2nc(-c3ccc(-c4ccccc4F)cc3)[nH]c2c1 | 7.19 | < 4.70 | 7.57 | bioavailability [2]: 70%; concentration at 3 h [3]: 31.9 µM; concentration at 3 h [4]: 6.5 µM; Vd [5]: 2.9 L/kg; half-life [6]: 1.1 h; bioavailability [7]: 39%; pIC50 [8]: 5.88; concentration at 3 h [9]: 13.2 µM; inhibition in vivo at 30 mg/kg (Mus musculus [10]): 36%; Vd [11]: 2 L/kg; half-life [12]: 35.5 h; clearance [13]: 20 mL/min/kg; inhibition in vivo at 100 mg/kg (Mus musculus [14]): 78%; inhibition (Mus musculus [15]): Dose-dependent effect; AUC [16]: 8 µM·h; pIC50 [17]: 5.29; concentration at 3 h [18]: 10.1 µM; clearance [19]: 26 mL/min/kg; AUC [20]: 2.4 µM·h; pIC50 [21]: < 4.30
CS(=O)(=O)c1ccc2nc(-c3ccc(-c4ccccc4O)cc3)[nH]c2c1 | 6.47 |  |  | 
Cn1c(-c2ccc(-c3ccccc3F)nc2)nc2ccc(S(C)(=O)=O)cc21 | < 4.70 |  |  | 
Cc1ccccc1-c1ccc(-c2nc3ccc(S(C)(=O)=O)cc3[nH]2)cc1 | 5.41 |  |  | 
Fc1ccccc1-c1ccc(-c2nc3ccccc3[nH]2)cc1 | < 4.70 |  |  | 
CS(=O)(=O)c1ccn2cc(-c3ccc(-c4ccccc4)cc3)nc2c1 | 7.38 | < 4.70 | 7.22 | 
CS(=O)(=O)c1cnc2nc(-c3ccc(-c4ccccc4F)cc3)[nH]c2c1 | 6.81 | < 4.70 |  | 
CS(=O)(=O)c1ccc2nc(-c3ccc(-c4ccccn4)cc3)[nH]c2c1 | 5.77 | < 4.70 | 5.75 | 
Cn1c(-c2ccc(-c3ccccc3F)nc2)nc2cc(S(C)(=O)=O)ccc21 | 5.60 |  |  | 
CC(C)(C)c1ccc2nc(-c3ccc(-c4ccccc4F)cc3)[nH]c2c1 | 6.76 | < 4.70 | 6.14 | 
N#Cc1ccc2nc(-c3ccc(-c4ccccc4F)cc3)[nH]c2c1 | < 4.70 | < 4.70 | < 4.70 | 
CS(=O)(=O)c1ccc2nc(-c3ccc(-c4cccc(Cl)c4)cc3)[nH]c2c1 | 6.83 | < 5.00 | 7.82 | 
CS(=O)(=O)c1ccc2nc(-c3ccc(-c4ccc(-c5ccccc5)s4)cc3)[nH]c2c1 | < 4.70 |  |  | 
CS(=O)(=O)c1ccc2nc(-c3ccc(-c4ccccc4F)cn3)[nH]c2c1 | 6.64 |  |  | 

Structure (SMILES) | pIC50 (Acyl-CoA desaturase 1) | pIC50 [1] | pIC50 (Stearoyl-CoA desaturase) | other results
Cc1ccc(-c2ccc(-c3nc4ccc(S(C)(=O)=O)cc4[nH]3)cc2)cc1 | < 4.70 |  |  | 
CS(=O)(=O)c1ccc2nc(-c3ccc(-c4ccncc4)cc3)[nH]c2c1 | 5.61 | < 4.70 | 5.37 | 
CS(=O)(=O)c1ccc2nc(-c3ccc(-c4ccccc4Cl)cc3)[nH]c2c1 | 5.35 | < 4.70 | 6.59 | 
CS(=O)(=O)c1ccc2nc(-c3ccc(-c4ccoc4)cc3)[nH]c2c1 | 6.40 | < 4.70 | 5.77 | 
CS(=O)(=O)c1ccc2nc(-c3ccc(-c4ccccc4)cc3)sc2c1 | < 4.70 |  |  | 
Cc1ccsc1-c1ccc(-c2nc3ccc(S(C)(=O)=O)cc3[nH]2)cc1 | 6.33 |  |  | 
CS(=O)(=O)c1ccc2nc(-c3ccc(Br)cc3)[nH]c2c1 | < 4.70 |  |  | 
CS(=O)(=O)c1ccc2nc(-c3ccc(-c4cc(Cl)ccc4F)cc3)[nH]c2c1 | 6.56 |  |  | 
CS(=O)(=O)c1ccc2nc(-c3ccc(-c4ccsc4)cc3)[nH]c2c1 | 6.98 |  |  | 
Cc1cccc(-c2ccc(-c3nc4ccc(S(C)(=O)=O)cc4[nH]3)cc2)c1 | 6.50 |  |  | 
CS(=O)(=O)c1ccc2nc(-c3cnc(-c4ccccc4)nc3)[nH]c2c1 | 6.31 |  |  | 
CS(=O)(=O)c1ccc2nc(-c3ccc(-c4cccc(F)c4)cc3)[nH]c2c1 | 7.68 | < 4.70 | 7.52 | 
C[S+]([O-])c1ccc2nc(-c3ccc(-c4ccccc4F)cc3)[nH]c2c1 (stereo not drawn) | 6.33 | < 4.70 | 7.02 | 
CS(=O)(=O)c1ccc2nc(-c3ccc(-c4cccc(O)c4)cc3)[nH]c2c1 | 6.40 | < 4.70 | 6.47 | 
CS(=O)(=O)c1ccc2nc(-c3ccc(-c4ccccc4)cc3)cn2c1 | < 4.70 |  |  | 
CS(=O)(=O)c1ccc2nc(-c3ccc(-c4cccc(Cl)c4F)cc3)[nH]c2c1 | 7.02 |  |  | 
CN(C)S(=O)(=O)c1ccc2nc(-c3ccc(-c4ccccc4F)cc3)[nH]c2c1 | 6.28 |  |  | 
CS(=O)(=O)c1ccc2nc(-c3ccc(-c4ccc(O)cc4)cc3)[nH]c2c1 | 6.52 | < 4.70 | 5.63 | 
NS(=O)(=O)c1ccc2nc(-c3ccc(-c4ccccc4F)cc3)[nH]c2c1 | 6.46 | < 4.70 | 7.13 | 
CS(=O)(=O)c1ccc2nc(-c3ccc(-c4cccs4)cc3)[nH]c2c1 | 7.01 | < 4.70 |  | 
CS(=O)(=O)c1ccc2nc(-c3ccc(-c4ccc(F)cc4)cc3)[nH]c2c1 | 7.60 |  |  | 
